The source of these data is patent US12678414B2, “Compositions for treatment of fungal nail infections” (Blueberry Therapeutics Limited, priority 2016, dated 2026).

The subject of one data set is T. mentagrophytes. Kind of data set: Trychophyton mentagrophytes anti-fungal paper disc lawn assay. The format is cell-based. The method, then: A single colony of T. mentagrophytes was picked from a stock plate and grown for 48 hours in 5 mls of YEPD (yeast extract, peptone, dextrose) medium at 30° C. A sterile swab was dipped into the resulting culture and then used to spread a lawn of T. mentagrophytes onto a YEPD agar plate supplemented with chloramphenicol (50 ug/ml). […] A 10 mm sterile paper disc was soaked in test solution, the excess liquid removed and the disc placed onto the T. mentagrophytes lawn. Plates were inverted and incubated at 30° C. for 5 days. The first experiment performed was to establish the approximate MIC (minimum inhibitor concentration) for terbinafine against T. mentagrophytes in a paper disc assay. […] After 5 days of incubation, zones of clearance were observed around the discs with concentrations of terbinafine having anti-fungal activity against this species (as shown in FIG. 10). […] The reported figures were certainly derived from a liquid MIC assay, which is known to be more sensitive, and so this paper disc assay represented a substantially more stringent test of drug efficacy. This assay was also used to address the question of whether terbinafine passing through the nail in BB0305 treated samples still retained its antifungal efficacy.

Data set [1] relates to Trichophyton interdigitale. The following applies: 11 strains tested; cited from earlier work.
The next data set deals with Trichophyton terestre. Particulars: 1 strain tested; cited from earlier work.
Another data set has as its system Trichophyton species. Particulars: 27 strains tested; cited from earlier work.
The conditions of data set [2]: oral dosing, cited from earlier work.
The nature of data set [3]: Nanoparticle analysis on Nanosight LM10. The format is physicochemical. The method, then:
Nanoparticle formation was routinely confirmed on a Nanosight LM10 instrument (Malvern Instruments). Additional nanoparticle analyses were carried out using a Zetasizer (Malvern Instruments). […] Initial analysis used a Nanosight LM10 nanosizer (Malvern Instruments) to detect nanoparticles in solution. […] The LM10 uses direct visualisation of the particles through a microscope where particles are tracked by a video camera and their sizes calculated using the Einstein-Stokes equation, which relates particle velocity in a solution to their diameter. This video capture also allows for a qualitative assessment of different formulations during their analysis. However, this instrument has a lower cut-off range of approximately 20 nm diameter for analysis.

Data set [4] concerns Trichophyton mentagrophytes. Particulars: cited from earlier work.
The next data set has as its system Trichophyton rubrum. Particulars: 72 strains tested; cited from earlier work.
The test system of a further data set is Epidermophyton floccosum. Particulars: 42 strains tested; cited from earlier work.
The test system of data set [5] is onychomycosis. Particulars: topical terbinafine; hydrochloride; cited from earlier work.
Data set [6] is classed as in vitro ADME. The following applies: human, 7 days. The procedure: Nail clippings were soaked in water overnight at 30° C. and dried briefly. A 3 mm diameter punch was used to take disc biopsies of the nail clippings. Each nail disc was added to a Franz cell and an upper chamber of the cell attached. 40 μl of the following formulations was added to the upper chambers: 0.3 mg/ml PHMB+0.1 mg/ml terbinafine; or 10 mg/ml terbinafine. Lower collection chambers of the Franz cells were filled with water (approximately 600 μl) and the hole in the base of the sample chamber also filled with ddH2O to prevent bubbles forming beneath the nail. The upper sample chamber was carefully placed into the collection chamber ensuring not to introduce any air bubbles. Excess liquid from the collection chamber was expelled at this point leaving a final volume of liquid in the lower chamber of 500 μl. […]
The nail discs from the Franz cell were also analysed for the presence of terbinafine as follows: the remaining test sample was removed from the upper sample chamber and discarded and the sample chamber washed 5 times with 100 μl ddH2O, with each wash being discarded, in order to remove any residual test solution remaining in the sample chamber. […]
The cells were then incubated at 32° C. for 7 days. […] After 7 days, samples from the underside of the nail (ethanol washes) were collected and analysed by LC-MS/MS. […] Levels of terbinafine were quantified against drug standards. […]

The next data set has as its system Trichophyton verrucosum. The following applies: 17 strains tested; cited from earlier work.
The subject of the next data set is Microsporum species. The following applies: 25 strains tested; cited from earlier work.
Data set [7] has as its system onychomycosis. Particulars: oral, following 3-6 months of dosing; cited from earlier work.
Another data set concerns Microsporum canis. Particulars: 49 strains tested; cited from earlier work.

“Also recorded” adds a separate entry of the source. Structures can show the parent of a compound that is named as a salt. Where two headings read alike, the source gives them in different places.

For the compound `CN(C/C=C/C#CC(C)(C)C)Cc1cccc2ccccc12` [terbinafine, terbinafine hydrochloride], the “paper disc MIC relative to previously reported MIC” value in the data set with T. mentagrophytes (0.6 μg/ml versus 6 ng/ml) is on record as above 100 ×. Also, the MIC in the data set on T. mentagrophytes (Trichophyton mentagrophytes, 120 h, paper disc assay, 5 days incubation, approximate, read-out: MIC (minimum inhibitor concentration)) is 0.6 µg/mL. For the same compound, the “antifungal activity (zone of clearance) of sample that passed through nail” value in the data set on T. mentagrophytes (aqueous phase of Franz cell collection chamber after 7 days treatment of healthy human nail, 30° C., 5 days) is reported as “no effect”. The MIC range is 2 to 28 ng/mL in data set [1]; 2 ng/mL in the data set on Trichophyton terestre; at most 0.06 µg/mL with Trichophyton species; 1 to 6 ng/mL in [4] (32 strains tested); 1 to 38 ng/mL with Trichophyton rubrum; 1 to 47 ng/mL in the data set with Epidermophyton floccosum. Moreover, the values for the MIC range in the data set with Trichophyton verrucosum, with Microsporum species and in the data set on Microsporum canis were 1 to 6 ng/mL, 2 to 70 ng/mL and 6 to 80 ng/mL, respectively. Besides, the “terbinafine concentration in nails” value is “about 0.25 μg/g” in data set [2] (after 3 weeks), 0.55 µg/g in data set [2] (after 18 months) and 0.1 µg/g in data set [2] (after 7 days treatment). Moreover, the “number of particles/ml of solution” value in [3] (0.1 mg/ml terbinafine in 30% (v/v) ethanol) was below 5e+07 mL⁻¹. Further, in [3] (0.1 mg/ml terbinafine, 30% ethanol), the “particle size range (diameter)” value was 50-800 nm. Besides, the particle number in [3] (30% ethanol, room temperature at least 24 hours, 0.1 mg/ml terbinafine) is on record as 0.5×10^8 particles/ml. In data set [4] (liquid MIC assay, with reference to Table 1), the “previously reported MIC” value is 6 ng/mL. In addition, the “efficacy in the treatment of onychomycosis” value in the data set on onychomycosis [5] was “failed to show efficacy; also recorded: failed to demonstrate any significant efficacy”. In [6], the “median concentration of drug in dissolved nails” value is on record as “approximately 0.5 mg/g”. For the same compound, the “terbinafine passing through the nail (ethanol washes of underside)” value in data set [6] (0.1 mg/ml) was below 0.1 ng/mL. Moreover, the cure in the data set on onychomycosis [7] is recorded as above 80%.
